Reference: patent US6174909A, “4-aminotetrahydrobenzisoxazole or -isothiazole compounds” (H. Lundbeck A/S, priority 1995, dated 2001)
Counter-ions that a name gives are not always drawn.

Tests used:
[1] = system: isoniazide induced convulsions in mice; experiment: Isoniazid antagonism (antagonism of isoniazide induced convulsions in mice); type: in vivo, mice (male NMRI/BOM); settings: Mus musculus, sc, 30 min before 300 mg isoniazide s.c., protected = no convulsions within 60 min, log probit analysis
Description: The test is a test for antagonism of isoniazide induced convulsions in mice.
The test substance is given s.c. to mice (male NMRI/BOM, body weight 20-25 g) and 30 min later 300 mg isoniazide is given s.c. Five mice are used per dose and a control group only receiving isoniazide is included. This dose of isoniazide induces intermittent tonic seizures.
The animals are placed individually in Macrolon type II cages and the time when convulsions first occur is recorded. The experiment is stopped after 90 min. The animals that have not had convulsions within 60 min. are recorded as + (protected). The results, i.e. the number of protected mice pr number of tested mice are stated in fractions as follows: 0/5, 1/5 . . . , 5/5.

[2] = system: GABA uptake in synaptosomes; experiment: GABA uptake inhibition in synaptosomes (overall, i.e. neuronal and glial); type: biochemical; settings: values marked * = Preliminary Data
Description: The inhibition of GABA Uptake was performed by the method described by Falch et. al, Drug Dev. Res., 1990,21, 169-188. By this method the overall, i.e. neuronal and glial, inhibition of GABA uptake is determined.

SMILES | ED50 [1] | IC50 [2]
Oc1noc2c1C(NCCCCc1ccccc1)CCC2 (racemic) [Compound 8h, (R,S)-4-(4-phenylbut-1-ylamino]-3-hydroxy-4,5,6,7-tetrahydro-1,2-benzisoxazole, hydrobromide] | 150 µmol/kg | 4.8 µM
Oc1noc2c1C(NCCCC(c1ccccc1)c1ccccc1)CCC2 (racemic) [Compound 8g, (R,S)-4-(4,4-diphenylbutan-1-ylamino]-3-hydroxy-4,5,6,7-tetrahydro-1,2-benzisoxazole, hydrobromide] | 56 µmol/kg | 0.17 µM
C=CCNC1CCCc2onc(O)c21 (racemic) [Compound 8f, (R,S)-4-(2-propen-1-ylamino)-3-hydroxy-4,5,6,7-tetrahydro-1,2-benzisoxazole, oxalate] | 320 µmol/kg | 100 µM
CNC1CCCc2on(C(=O)NCc3ccccc3)c(=O)c21 (racemic) [Compound 15c] | > 120 µmol/kg | 84 µM
Oc1noc2c1C(NCc1ccccc1)CCC2 (racemic) [Compound 41a, (R,S)-3-Hydroxy-4-benzylamino-4,5,6,7-tetrahydro-1,2-benzisoxazole hydrobromide] | 77 µmol/kg | 140 µM
CCNC1CCCc2onc(O)c21 (racemic) [Compound 8e, (R,S)-4-Ethylamino-3-hydroxy-4,5,6,7-tetrahydro-1,2-benzisoxazole, hydrobromide] | > 300 µmol/kg | 100 µM
CN(CCOC(c1ccc(F)cc1)c1ccc(F)cc1)C1CCCc2onc(O)c21 (racemic) [Compound 16a, (R,S)-4-[N-[bis(4-fluorophenyl)methyl-2-oxyethyl]-N-methylamino]-3-hydroxy-4,5,6,7-tetrahydro-1,2-benzisoxazole, sodium salt] | 55 µmol/kg | 4.5 µM
CN(CCOC(c1ccc(Cl)cc1)c1ccc(Cl)cc1)C1CCCc2onc(O)c21 (racemic) [Compound 16b, (R,S)-4-[N -[bis (4-chlorophenyl)methyl-2-oxyethyl]-N -methylamino]-3-hydroxy-4,5,6,7-tetrahydro-1,2-benzisoxazole, sodium salt] | 81 µmol/kg | 4.9 µM
CN(CCCC(c1ccc(F)cc1)c1ccc(F)cc1)C1CCCc2onc(O)c21 (racemic) [Compound 11a, (R,S)-^4-[N-[4,4-Bis(4-fluorophenyl)butan-1-yi]-N-methylamino]-3-hydroxy-4,5,6,7-tetrahydro-1,2-benzisoxazole, hydrobromide] | 67 µmol/kg | 0.73 µM
